Experimental data from PMC3871595, “Structure Based Identification and Characterization of Flavonoids That Disrupt Human Papillomavirus-16 E6 Function” (PLoS ONE, 2013).

Tests used:
[1] = tested on: HPV-18 positive HeLa cells; assay: cell viability (MTS, Celltiter 96 AQueous) HeLa; type: cell-based, human; settings: 48 to 96 hours, relative to DMSO
Procedure: HPV-18 positive HeLa cells and two additional control cell lines, C33a, a cell line derived from an HPV-negative human cervical cancer isolate, and HaCat, a spontaneously immortalized human keratinocyte cell line, were used to assess compounds for their impact on cell growth and viability. All cells were incubated for 48 to 96 hours with increasing doses of compound. Cell viability was measured by MTS based assay and % viability quantified relative to cells treated with DMSO. […] This is in agreement with the lack of specificity for HPV-dependent cells observed in the p53 western results.
(§1) For cell viability, 12,000 cells per cm^2 were plated in 96-well dishes 24 hours prior to drug addition. Fresh media and compound were added. Plates were read after 72-96 hours. Relative cell viability was assayed as directed in the Celltiter 96 AQueous one solution assay (Promega). For caspase activity, plates were assayed after 4, 8, 12, 24, or 48 hours as described for the Caspase-Glo 3/7 assay (Promega).

[2] = tested on: E6/E7 HFKs; assay: cell viability (MTS, Celltiter 96 AQueous) E6/E7 HFKs; type: cell-based, human; settings: 48 to 96 hours, relative to DMSO
[3] = tested on: C33a cells; assay: cell viability (MTS, Celltiter 96 AQueous) C33a; type: cell-based, human; settings: C33a (HPV negative), 48 to 96 hours, relative to DMSO
Procedure: (§2) HPV-18 positive HeLa cells and two additional control cell lines, C33a, a cell line derived from an HPV-negative human cervical cancer isolate, and HaCat, a spontaneously immortalized human keratinocyte cell line, were used to assess compounds for their impact on cell growth and viability. All cells were incubated for 48 to 96 hours with increasing doses of compound. Cell viability was measured by MTS based assay and % viability quantified relative to cells treated with DMSO.
as §1

[4] = tested on: Caski cells; assay: cell viability (MTS, Celltiter 96 AQueous) Caski; type: cell-based, human; settings: 48 to 96 hours, relative to DMSO
[5] = tested on: RPE-1 cells; assay: cell viability (MTS, Celltiter 96 AQueous) RPE-1; type: cell-based, human; settings: RPE-1 (HPV negative), 48 to 96 hours, relative to DMSO
[6] = tested on: primary HFKs; assay: cell viability (MTS, Celltiter 96 AQueous) primary HFKs; type: cell-based, human; settings: 48 hours, relative to DMSO
[7] = tested on: interaction between anti-FLAG antibody and the FLAG epitope in the E6AP-BAP fusion; assay: FLAG/BAP specificity filter binding assay
Procedure: The collection of 72 available structural-lead compounds was tested in the filter-plate based in vitro E6-E6AP binding assay. Compounds were tested twice at concentrations of 10, 50, and 100 µM. […] Compounds that disrupted the Flag-BAP interaction with the same potency as the HPV-16 E6 and E6AP interaction were classified as non-specific and eliminated from further analysis.
Figure 3 Activity of flavonoids in the in vitro binding assay. Compounds were tested in vitro for the ability to disrupt the E6-E6AP interaction. […] Percent inhibition was determined by the amount of BAP activity remaining in the well after washing and normalized to DMSO. Data was plotted by linear regression for single site binding using Prism (n=3, S.E.M.).
(§3) This interaction between E6 and hDlg occurs at the C-terminus of E6 and is independent of the interaction between E6 and the charged leucine helix in E6AP [21, 22].

[8] = tested on: HaCat cells; assay: cell viability (MTS, Celltiter 96 AQueous) HaCat; type: cell-based, human; settings: HaCat (HPV negative), 48 to 96 hours, relative to DMSO
Procedure: as §2, §1

[9] = target: T1, interaction between GST-E6 and three PDZ domains of hDlg fused to BAP (hDlg-BAP) (Human papillomavirus type 16, UniProt P03126); assay: E6/hDlg-BAP specificity filter binding assay; set-up: species or system HPV-16
T1 construct: made in house; host or cells: E. coli BL21
T1 sequence (P03126 whole entry, the tested form may be a part): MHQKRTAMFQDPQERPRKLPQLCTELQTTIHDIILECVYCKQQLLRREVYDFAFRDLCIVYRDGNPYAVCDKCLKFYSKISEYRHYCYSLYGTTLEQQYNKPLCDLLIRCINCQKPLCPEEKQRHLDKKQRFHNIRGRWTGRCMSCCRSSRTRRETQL
Procedure: as §3
Pre-Block - 96-well filter plates were prepared (0.2 µm BioTrace NT, Pall). 100µL of blocking buffer (100 mM Tris pH 8.0, 100 mM NaCl, 0.1% milk) was added per well. Plates were blocked for 1 hr at RT on an orbital shaker. Buffer was removed by vacuum filtration using a vacuum manifold. GST-E6 Bead addition – GST-E6 beads were prepared at 5µg/mL in GST-E6 bead buffer (100 mM Tris pH 8.0, 100 mM NaCl, 0.1% milk, 2.5 mM DTT). 100µL of GST-E6 bead mix was added per well and incubated for 1 hr at 4°C. Buffer was removed by vacuum filtration. […] 48 µL of each reagent was added per well. For drug assay, 2µL of compound was added to each well and mixed thoroughly. […] Plates were incubated for 1-3 hours at RT on an orbital shaker. Buffer was removed by vacuum filtration. Plates were washed on the vacuum manifold, first with 200 µL buffer (100 mM Tris pH 8.0, 100 mM NaCl, 1 mM DTT), and twice more with 100µL lysis buffer without DTT. […] 60 µL of Immunostar-AP assay reagent was added, the BAP activity was allowed to develop for 10 minutes and the plates were read on a Wallace Luminometer. BAP activity was measured as relative light units (RLU) on a luminometer using the Immunostar-AP substrate (BioRad).

[10] = target: GBF-E6 binding to E6apc2 peptide (Human papillomavirus type 16, UniProt P03126); assay: SPR competition, immobilized E6apc2 peptide, GBF-E6 analyte; set-up: species or system HPV-16; settings: 1.6-12.5 µM
Chain of GBF-E6 binding to E6apc2 peptide (P03126 whole entry, the tested form may be a part): as above
Procedure: The E6apc2 peptide was derived from the third zinc finger of the Sp1 protein and incorporates 10 amino acids from the charged helical domain of E6AP ([…]) at its C-terminus. […] In this experiment, E6apc2 was immobilized while E6apc1 control (E6-non-binder) was immobilized in a reference cell.
(§4) SPR analysis was performed on a Biacore 3000 instrument. Immobilized GBFE6 [43] was diluted to 30μg/mL in 10 mM sodium acetate, pH 4.0 and 5.0 and immobilized onto the dextran matrix of a CM5 sensor chip (Biacore) using the amine coupling method. All binding experiments were performed at 25 °C in 50 mM phosphate (pH 6.5) containing 200 mM NaCl. Pulses of 10 mM glycine (pH 3.0) were used to regenerate the surfaces between injections. […] SPR data were analyzed using BIAevaluation 4.1 software (Biacore).

[11] = target: E6 fused to a GB1-fusion tag (GBF) (Human papillomavirus type 16, UniProt P03126); assay: surface plasmon resonance direct binding, immobilized GBF-E6; set-up: species or system HPV-16; settings: 1.6-12.5 µM
Chain of E6 fused to a GB1-fusion tag (GBF) (P03126 whole entry, the tested form may be a part): as above
Procedure: A reference cell with immobilized GBF was performed simultaneously for background subtraction. […] While direct binding was observed, the data could not be properly fit to determine binding affinity.
as §4

SMILES | cell growth and viability [1] | cell growth and viability [2] | cell growth and viability [3] | cell growth and viability [4] | cell growth and viability [5] | cell growth and viability [6] | non-specific inhibition / specificity in FLAG-E6AP control assay [7] | cell growth and viability [8] | specificity against hDlg control binding reaction [9] | competition with E6apc2 peptide for binding to GBF-E6 [10] | direct binding to E6 (SPR response) [11]
COc1cccc(-c2cc(=O)c3cc(-c4nnn[nH]4)ccc3o2)c1 [CAF-24] | selectively inhibited growth | selectively inhibited growth | little effect on the viability | selectively inhibited growth | little effect on the viability | to a lesser extent, inhibit growth of the primary HFKs | increased specificity against the FLAG and hDlg control binding reactions | little effect on the viability | increased specificity against the FLAG and hDlg control binding reactions | – | –
O=c1cc(-c2ccc(O)c(O)c2)oc2cc(O)cc(O)c12 [luteolin, reference compound] | potent inhibitor of Caski, E6/E7 HFKs, and HeLa growth | potent inhibitor of Caski, E6/E7 HFKs, and HeLa growth | – | potent inhibitor of Caski, E6/E7 HFKs, and HeLa growth | – | – | – | – | – | directly competed with the peptide for binding to GBF-E6 | directly binds to E6 protein
